3 molecules from patent US7049071B2, “Detection of DNA damaging agents” (University of Manchester Institute of Science and Technology, priority 1997, dated 2006) can be followed below.

Common to all, as to type: cell-based, Saccharomyces cerevisiae
Data set [1] deals with RAD54 promoter. As to the kind of experiment: Specificity experiment: GFP reporter induction by agents that delay mitosis. As to conditions: transformed cells; concentration that inhibited cell growth to a similar extent to the MMS treatment regime. The source says: These experiments involved exposing transformed cells to hydroxyurea and nocodazole which can delay mitosis in different ways. Hydroxyurea interferes with DNA synthesis at two levels: it inhibits ribonucleotide reductase, so limiting the supply of precursors for DNA synthesis, and it inhibits DNA ligase, an enzyme responsible for repairing nicks (single strand breaks) in the DNA backbone. In contrast nocodazole inhibits microtubule formation and thus primarily arrests cell growth by preventing the normal segregation of chromosomes during mitosis.

Data set [2] relates to RAD54 promoter. As to the kind of experiment: Western blot of yeast protein extracts with anti-GFP antibody. The settings on record: yeast cells transformed with pWDH443 or pWDH444, induced with MMS. An excerpt: Protein extracts from untransformed yeast cells and yeast cells transformed with both pWDH443 and pWDH444 were used in a Western blot analysis using anti-GFP antibody. GFP was not detected in untransformed cells and was only detected at low levels in uninduced transformed cells.

Data set [3] deals with RAD54 promoter. Put plainly: Whole cell GFP fluorescence of FF18984 transformed with yEGFP-444 or pWDH444. The settings on record: for Brightness (BU) + MMS, average: average of three; for Brightness (BU) + MMS: single measurements. The procedure:
A stationary phase culture of cells grown in SD medium was used as the inoculum source. Aliquots (30 μl) of cells were inoculated into 3 ml of SD in 15 ml test tubes. Half of the tubes were then supplemented with 0.01% MMS (the remaining tubes left as controls). The tubes were incubated at 25° C. for 16 h on an orbital shaker at 120 rpm, then transferred to an ice-box whilst maintaining agitation. The cells were then transferred to 1.5 ml eppendorf tubes, harvested by centrifugation (10 s), washed twice in sterile distilled water, and resuspended in 250 μl extraction buffer.
(§1) For whole cell fluorescent measurements, the washed cells were transferred directly to cuvettes containing 2.75 ml sterile distilled water.
Fluorescence measurements were performed with a Perkin Elmer LS50 Fluorescence Spectrometer. The excitation and emission wavelengths were set to 488nm and 511 nm, respectively, with a slit width of 10 nm. To correct for variations in cell number/protein extraction efficiency, light absorption was recorded for each cuvette at either 600 nm (for whole cells) or 280 nm (for extracts). The fluorescence values obtained from the fluorometer were then divided by the absorption readings to give the “brightness value”, an arbitrary unit independent of sample concentration. Other data handling details are dealt with either in the text or in the
The assessment of GFP fluorescence in whole cells was performed essentially as described in 1.2 (above).

Data set [4] deals with RAD54 promoter. As to the kind of experiment: Fluorescence assay of yeast transformed with pWDH443 or pWDH444 (RAD54 promoter linked to S65T GFP), whole cells or cell extracts. As to the method: Light emitted by GFP at 511 nm (after excitation at 488 nm) from yeast cells transformed with pWDH443 and pWDH444 and expressing GFP was measured in a fluorimeter in the absence (controls) or presence of compounds known to induce DNA damage such as Methyl Methane Sulphonate (MMS). Samples were assayed as whole cells or as cell extracts.
Yeast strains Y485 and Y486 in haploid form or Y485/486 in diploid form were in this Example (see above).
A stationary phase culture of cells grown in SD medium was used as the inoculum source. Aliquots (30 μl) of cells were inoculated into 3 ml of SD in 15 ml test tubes. […] The tubes were incubated at 25° C. for 16 h on an orbital shaker at 120 rpm, then transferred to an ice-box whilst maintaining agitation. The cells were then transferred to 1.5 ml eppendorf tubes, harvested by centrifugation (10 s), washed twice in sterile distilled water, and resuspended in 250 μl extraction buffer.
as §1
For cell extract studies, 100μl of 400–600nm diameter glass beads were added to the tubes of cells which were then placed in a BIO 101 Fastprep FP120 to mechanically disrupt the cells. Following centrifugation for 30 s, the supernatant was transferred to a clean tube. The pellet of beads was washed in a further 250 μl of extraction buffer and this was added to the supernatant from the previous extraction. 200 μl of the pooled extract in 300 μl of water was then transferred to a cuvette.
Fluorescence measurements were performed with a Perkin Elmer LS50 Fluorescence Spectrometer. The excitation and emission wavelengths were set to 488nm and 511 nm, respectively, with a slit width of 10 nm. To correct for variations in cell number/protein extraction efficiency, light absorption was recorded for each cuvette at either 600 nm (for whole cells) or 280 nm (for extracts). The fluorescence values obtained from the fluorometer were then divided by the absorption readings to give the “brightness value”, an arbitrary unit independent of sample concentration. Other data handling details are dealt with either in the text or in the […]

The mark [5] stands for this setting: FF18984 transformed with pWDH444, whole cells.
[6] abbreviates: FF18984 transformed with yEGFP-444, whole cells.

“And” between values parts separate entries of the source, which are not always exact repeats. Equal values may be shown once.

As to `NC(=O)NO` [hydroxyurea], in the data set with RAD54 promoter [1], the “Induction of the GFP reporter gene” value is “no detectable induction of the GFP reporter gene”.

On to `COS(C)(=O)=O` [MMS, Methyl Methane Sulphonate], for which the “GFP antibody binding in Western blot” value in the data set on RAD54 promoter [2] is “considerable increase in GFP antibody binding”. Also, the “Brightness (BU) + MMS, average” value in the data set on RAD54 promoter [3] (setting [5]) is listed as “average = 49 BU”; in the data set with RAD54 promoter [3] (setting [6]), “average = 96.7 BU”. The “Brightness (BU) + MMS” value with RAD54 promoter [3] (setting [5]) was 45 BU and 54 BU and 48 BU; with RAD54 promoter [3] (setting [6]) it was 100 BU and 97 BU and 93 BU. Besides, the “Time after induction at which fluorescence began to increase” value with RAD54 promoter [4] (0.05% MMS) was “one”. Also, the “Change in fluorescence (FIG. 10)” value was “increase in fluorescence” in the data set on RAD54 promoter [4] (haploid Y486 transfected with pWDH444, cell extracts, 0.02% MMS); “increase in fluorescence” in the data set on RAD54 promoter [4] (haploid Y486 transfected with pWDH444, cell extracts, 0.05% MMS); “no significant effect” in the data set on RAD54 promoter [4] (untransformed Y486 cells, 0.02% MMS); “no significant effect” with RAD54 promoter [4] (untransformed Y486 cells, 0.05% MMS). Further, the “Change in brightness relative to untransformed cells also exposed to MMS (FIG. 7)” value with RAD54 promoter [4] (pWDH443 transformed yeast Y485, Y486 and diploid Y485/486) is “increase in brightness”. For the same molecule, the Change in fluorescence entry with RAD54 promoter [4] (pWDH443 transformed yeast Y485, Y486 and diploid Y485/486, 0.002% MMS) is reported as “statistically significant increases in fluorescence”; in the data set on RAD54 promoter [4] (pWDH443 transformed yeast Y485, Y486 and diploid Y485/486, 0.01% MMS), “statistically significant increases in fluorescence”.

With `COC(=O)Nc1nc2ccc(C(=O)c3cccs3)cc2[nH]1` [nocodazole], in the data set with RAD54 promoter [1], the “Induction of the GFP reporter gene” value is listed as “no detectable induction of the GFP reporter gene”.
